Experiments:
[1] = system: Jurkat cell line; experiment: Cytotoxicity, WST-1 cell viability; format: cell-based, human; conditions: 0.2 µM ~ 50 µM, 24 and 48 hours
Description: For Example 1 (LCA-Ile), Example 44 (LCA-Val), Example 2 (UDCA-Ile), and Example 3 (UDCA-Val), cytotoxicity was evaluated in the Jurkat cell line, a human T lymphocyte-derived cell line. Jurkat cell lines were seeded at a density of 5 × 10^4 on a 96 well plate for overnight incubation, and each compound was treated at a concentration of 0.2 µM ~ 50 µM for 24 or 48 hours. WST-1, a reagent for measuring cell viability, was loaded at 10 µl/well, and absorbance was measured at 440 nm using a microplate reader 2 hours later. The mean value of negative control (NC) group treated with only DMSO was calculated as 1 and the cytotoxicity for the remaining experimental group was evaluated.

[2] = system: HBV; experiment: Inhibition of intracellular HBV virus invasion, HBeAg ELISA analysis; format: cell-based; conditions: 20 µM, HepG2-NTCP cell line, HBV 3000 Geq/cell, O.D. at 450 nm
Description: (§1) In order to evaluate the ability to inhibit intracellular HBV virus entry (invasion), Enzyme-linked immunosorbent assay (ELISA) analysis to measure HBeAg, which is associated with high infectivity as an antigen in the HBV virus core portion, and Southern blot analysis to measure DNA of HBV were performed.
(§2) Specifically, the HepG2-NTCP cell line was cultured on a 6-well plate, incubation was performed overnight, HBV inhibitors were treated at a concentration of 20 µM, and the positive control Myrcludex-B (MyrB) was treated at a concentration of 200 nM, followed by culture for 24 hours. After HBV infection into the cells to make HBV 3000 genome equivalent per ml/cell (Geq/cell), the cell culture medium was replaced (medium changing, MC) a day after the viral infection to remove the virus unattached to cell membranes. In order to measure an amount of virus that entered the cell, medium changing (MC) was performed once more 4 days after viral infection. 2 days after replacement, HBeAg ELISA analysis was performed using a supernatant, and Southern blot analysis was performed with cell pellets.
HBeAg ELISA analysis was performed using an HBeAg ELISA kit (sanbio, Wantai HBeAg ELISA, cat#WB-2496) for the supernatant obtained by the method in Experimental Example 4-1.
First, a negative control group (Mock), positive control group (MyrB), and samples according to the present disclosure were loaded, by 50 µl each to be triplicate, onto a 96-well plate coated with capture Ab. In this case, Example 1 (LCA-ILE), Example 44 (LCA-Val), Example 52 (LCA-Tyr), Example 51 (LCA-Ser), Example 55 (LCA-Glu), Example 2 (UDCA-Ile), Example 3 (UDCA-Val), Example 25 (LCA-Val-Trp), Example 10 (DCA-Ile), Comparative Example 1 (LCA), and Comparative Example 2 (UDCA) were used as the sample.
The HRP-conjugated detection antibody was loaded into each well by 50 µl, followed by a reaction at 37°C for 30 minutes. Washing buffer (1X PBS, 0.5% Tween20) was added by 200 µl, and washing was performed 5 times. 50 µl of chromogen solution A and 50 µl of chromogen solution B were added to each well, and a reaction was carried out in the darkness at 37°C for 15 minutes. The stop solution was added to each well by 50 µl each to stop the reaction, and the amount of HBeAg was measured by measuring the absorbance (optical density, O.D.) level in the 450 nm wavelength band.

[3] = system: HBV; experiment: Inhibition of intracellular HBV virus invasion, Southern blot analysis; format: cell-based
Description: as §1, §2
For the cell pellet obtained by the method of Experimental Example 4-1, Southern blot analysis for measurement of […] DNA was performed using Example 1 (LCA-Ile), Example 44 (LCA-Val), Example 52 (LCA-Tyr), Example 51 (LCA-Ser), Example 55 (LCA-Glu), Example 2 (UDCA-Ile), Example 3 (UDCA-Val), Example 25 (LCA-Val-Trp), Example 10 (DCA-Ile), Comparative Example 1 (LCA), and Comparative Example 2 (UDCA).
First, the cell pellets were pipetted with 100 µl of HEPES lysis buffer (10 mM HEPES, 100 mM NaCl, 1 mM EDTA, 1% NP-40), placed on ice for 20 minutes, and then centrifuged with a centrifuge under the conditions at 4°C and 13000 rpm. After transferring the supernatant only to the new microtube, 4.5 µl of nuclease buffer I (10 mM CaCl2, 12 mM MgCl2, DNase 10 units) was added to carry out a reaction at 37°C for 2 hours, and 40 µl of 26% PEG solution was added, followed by a reaction on ice for 1 hour. After centrifuging with the centrifuge at 4°C and 13000 rpm for 30 minutes, and the supernatant was removed cleanly. After releasing the pellets with 100 µl of nuclease buffer II (10 mM Tris, 8 mM CaCl2, 6mM MgCl2), 287.5 µl of 0.5% SDS buffer (25 mM Tris, 10 mM EDTA, 0.5% SDS, 100 mM NaCl) was added, and 12.5 µl of 20 mg/ml proteinase K was added, followed by a reaction at 37°C for 2 hours. 400 µl of phenol-chloroform-isoamyl alcohol was added, centrifugation was performed at room temperature at 13000 rpm after voltexing, the supernatant was transferred to a new tube, 40 µl of 3 M NaOAc was added, and 800 µl of 100% ethanol was added for inverting, followed by a reaction overnight at -20°C. After performing centrifugation at 4°C and 13000 rpm for 30 minutes, 800 µl of 70% ethanol was added and mixed to the pellet obtained by removing the supernatant, centrifugation was performed at 4°C and 13000 rpm for 10 minutes, and then the supernatant was discarded. The ethanol was dried for 5 minutes to leave only the HBV DNA pellets, and then the pellets were dissolved again in 15 µl of TE buffer (10 mM Tris, 1 mM EDTA). HBV DNA samples were loaded in 1% agarose gel, and electrophoresis was performed. It was then immersed in denature buffer (0.25 N NaOH, 1 M NaCl) for 30 minutes to denature dsDNA of HBV into ssDNA. The DNA in the gel was transferred to a Nylon membrane using a transfer buffer (0.4 M NaOH), the membrane was soaked with a 2X SSC buffer (sigma, cat# 85639) for neutralization, followed by drying in air. The membrane was immersed in a church buffer (10% BSA, 0.5 M EDTA, 1 M NaPi, 20% SDS), and the radioisotopes were hybridized using a Mega prime kit (GE healthcare, RPN1607). After washing three times with washing buffer (2X SSC, 0.1% SDS), measurement was performed using radioisotope measurement equipment, and a relative replication rate (%) to the negative control group (Mock) was calculated and shown.

With CC[C@@H](C)[C@H](NC(=O)CC[C@@H](C)[C@H]1CC[C@H]2[C@@H]3CC[C@@H]4C[C@H](O)CC[C@]4(C)[C@H]3CC[C@]12C)C(=O)O [Example 1, (2S,3R)-2-((R)-4-((3R,5R,8R,9S,10S,13R,14S,17R)-3-hydroxy-10,13-dimethyl-hexadecahydro-1H-cyclopenta[a]phenanthren-17-yl)pentanamido)-3-methylpentanoic acid] the cytotoxicity [1] was “barely observed”, the “HBeAg absorbance level compared with Comparative Example 1 (LCA) and Comparative Example 2 (UDCA)” value [2] was “lower” and the “HBeAg absorbance level compared with the negative control group (Mock)” value [2] was “relatively lower”. The “amount of HBeAg DNA detected compared to the negative control group (Mock)” value ([3]; 20 µM, HepG2-NTCP cell line, HBV 3000 Geq/cell) was “relatively less amount” and the activity at 20 µM ([3]; Hepatitis B virus, read-out: relative replication rate of quantified HBeAg DNA to the negative control group (Mock), 20 µM, HepG2-NTCP cell line, HBV 3000 Geq/cell) was under 80%.
